Assay results from PubChem BioAssay (NCI).
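Protocol summary: plate cells (96-well), add compound at 5 concentrations, incubate 48 h, interpolate endpoints linearly. At the TGI there is no net growth.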

Assays:
Test in all cases: inhibition of tumour cell growth, NCI panel, 48 h
HCT-116 colon = system: HCT-116 colon
M14 melanoma = system: M14 melanoma
HCT-15 colon = system: HCT-15 colon
HT29 colon = system: HT29 colon
CAKI-1 renal = system: CAKI-1 renal
UACC-257 melanoma = system: UACC-257 melanoma
MDA-MB-231 breast = system: MDA-MB-231 breast
HOP-62 NSCLC = system: HOP-62 NSCLC
NCI/ADR-RES ovarian = system: NCI/ADR-RES ovarian
CCRF-CEM leukemia = system: CCRF-CEM leukemia
T-47D breast = system: T-47D breast
UACC-62 melanoma = system: UACC-62 melanoma
SK-MEL-2 melanoma = system: SK-MEL-2 melanoma
IGROV1 ovarian = system: IGROV1 ovarian
HS 578T breast = system: HS 578T breast
TK-10 renal = system: TK-10 renal
A498 renal = system: A498 renal
RPMI-8226 leukemia = system: RPMI-8226 leukemia
SNB-19 CNS = system: SNB-19 CNS
NCI-H460 lung = system: NCI-H460 lung
OVCAR-8 ovarian = system: OVCAR-8 ovarian
COLO 205 colon = system: COLO 205 colon
SF-268 CNS = system: SF-268 CNS
SN12C renal = system: SN12C renal
MDA-N = system: MDA-N
SF-295 CNS = system: SF-295 CNS
786-0 renal = system: 786-0 renal
ACHN renal = system: ACHN renal
UO-31 renal = system: UO-31 renal
MOLT-4 leukemia = system: MOLT-4 leukemia
NCI-H522 lung = system: NCI-H522 lung
MDA-MB-435 = system: MDA-MB-435
OVCAR-4 ovarian = system: OVCAR-4 ovarian
KM12 colon = system: KM12 colon
BT-549 breast = system: BT-549 breast
SW-620 colon = system: SW-620 colon
SK-MEL-5 melanoma = system: SK-MEL-5 melanoma
NCI-H226 lung = system: NCI-H226 lung
U251 CNS = system: U251 CNS
SK-MEL-28 melanoma = system: SK-MEL-28 melanoma
OVCAR-3 ovarian = system: OVCAR-3 ovarian
HOP-92 NSCLC = system: HOP-92 NSCLC
LOX IMVI melanoma = system: LOX IMVI melanoma
SF-539 CNS = system: SF-539 CNS
HCC-2998 colon = system: HCC-2998 colon
EKVX NSCLC = system: EKVX NSCLC
A549 NSCLC = system: A549 NSCLC
HL-60(TB) leukemia = system: HL-60(TB) leukemia
DU-145 prostate = system: DU-145 prostate
MCF7 breast = system: MCF7 breast
NCI-H23 lung = system: NCI-H23 lung
K-562 leukemia = system: K-562 leukemia
PC-3 prostate = system: PC-3 prostate
MALME-3M melanoma = system: MALME-3M melanoma
SR leukemia = system: SR leukemia
SK-OV-3 ovarian = system: SK-OV-3 ovarian
SNB-75 CNS = system: SNB-75 CNS
OVCAR-5 ovarian = system: OVCAR-5 ovarian

Measured: TGI

O=C(CC(=O)Nc1cccc(C(=O)O)c1)Nc1cccc(C(=O)O)c1
> 100 µM: HCT-116 colon | M14 melanoma | HCT-15 colon | HT29 colon | CAKI-1 renal | UACC-257 melanoma | MDA-MB-231 breast | HOP-62 NSCLC | NCI/ADR-RES ovarian | CCRF-CEM leukemia | T-47D breast | UACC-62 melanoma | SK-MEL-2 melanoma | IGROV1 ovarian | HS 578T breast | TK-10 renal | A498 renal | RPMI-8226 leukemia | SNB-19 CNS | NCI-H460 lung | OVCAR-8 ovarian | COLO 205 colon | SF-268 CNS | SN12C renal | MDA-N | SF-295 CNS | 786-0 renal | ACHN renal | UO-31 renal | MOLT-4 leukemia | NCI-H522 lung | MDA-MB-435 | OVCAR-4 ovarian | KM12 colon | BT-549 breast | SW-620 colon | SK-MEL-5 melanoma | NCI-H226 lung | U251 CNS | SK-MEL-28 melanoma | OVCAR-3 ovarian | HOP-92 NSCLC | LOX IMVI melanoma | SF-539 CNS | HCC-2998 colon | EKVX NSCLC | A549 NSCLC | HL-60(TB) leukemia | DU-145 prostate | MCF7 breast | NCI-H23 lung | K-562 leukemia | PC-3 prostate

CCOC(=O)C1=C(C)N(C)C23OC4(C(=O)OC)CC2c2ccccc2C1N3C4=O (stereo not given)
> 100 µM: HCT-116 colon | M14 melanoma | HCT-15 colon | MALME-3M melanoma | SR leukemia | HT29 colon | CAKI-1 renal | UACC-257 melanoma | MDA-MB-231 breast | HOP-62 NSCLC | NCI/ADR-RES ovarian | CCRF-CEM leukemia | T-47D breast | UACC-62 melanoma | SK-MEL-2 melanoma | IGROV1 ovarian | TK-10 renal | A498 renal | RPMI-8226 leukemia | SNB-19 CNS | NCI-H460 lung | OVCAR-8 ovarian | COLO 205 colon | SF-268 CNS | SK-OV-3 ovarian | SN12C renal | MDA-N | SF-295 CNS | 786-0 renal | ACHN renal | UO-31 renal | MOLT-4 leukemia | NCI-H522 lung | MDA-MB-435 | OVCAR-4 ovarian | KM12 colon | BT-549 breast | SW-620 colon | SK-MEL-5 melanoma | NCI-H226 lung | U251 CNS | SK-MEL-28 melanoma | OVCAR-3 ovarian | HOP-92 NSCLC | LOX IMVI melanoma | SF-539 CNS | SNB-75 CNS | HCC-2998 colon | EKVX NSCLC | A549 NSCLC | HL-60(TB) leukemia | DU-145 prostate | MCF7 breast | NCI-H23 lung | K-562 leukemia | PC-3 prostate | OVCAR-5 ovarian
